Laboratory results reported in publication PMC5656836, “Distinct activation mechanisms trigger the trypanocidal activity of DNA damaging prodrugs” (Molecular Microbiology, 2017).
Like-named read-outs stand apart in the source and are kept apart here.

Legend:
[1] = test system: bloodstream form T. brucei; experiment: Growth inhibition of wild type / control bloodstream form T. brucei (resazurin); assay type: cell-based
T. cruzi epimastigotes = experiment: Growth inhibition of T. cruzi epimastigotes (resazurin); assay type: cell-based; conditions: for EC50: read-out: T. cruzi EC50
L. major promastigotes = experiment: Growth inhibition of L. major promastigotes (resazurin); assay type: cell-based; conditions: for EC50: read-out: L. major EC50
[2] = test system: differentiated THP‐1 cells; experiment: Mammalian inhibition assay, differentiated THP-1 cells; assay type: cell-based; conditions: Homo sapiens, read-out: THP‐1 EC50
[3] = test system: T. brucei over expressing TbNTR (Tbntr++); experiment: microbe, parasite or virus in culture; assay type: cell-based; conditions: for EC50: Trypanosoma brucei, read-out: EC50 Tbntr++
[4] = test system: T. brucei over expressing TbCPR2 (Tbcpr2++); experiment: microbe, parasite or virus in culture; assay type: cell-based; conditions: for EC50: Trypanosoma brucei, read-out: EC50 Tbcpr2++
[5] = test system: T. brucei Tbsnm1 null mutants (ΔTbsnm1); experiment: microbe, parasite or virus in culture; assay type: cell-based; conditions: for EC50: Trypanosoma brucei, read-out: EC50 ΔTbsnm1
RH1^RC1 T. brucei = experiment: microbe, parasite or virus in culture; assay type: cell-based; conditions: for EC50: read-out: EC50 RH1^RC1;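 for ratio (fold difference in EC50 between RH1^RC1 and wild type): resistant clone selected by stepwise exposure to the aziridinyl benzoquinone prodrug in culture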
[6] = test system: mouse peritoneal macrophages; experiment: Toxicity to mouse peritoneal macrophages (cell counts, Giemsa); assay type: cell-based, BALB/c mice; conditions: Peritoneal macrophage, 120 h, read-out: EC50 towards mouse peritoneal macrophages
[7] = test system: T. brucei Tbntr heterozygote line; assay type: cell-based
RH1^RC2 T. brucei = experiment: microbe, parasite or virus in culture; assay type: cell-based; conditions: read-out: EC50 RH1^RC2
[8] = test system: ΔTbsnm1 Tbntr++ T. brucei; assay type: cell-based
Wild type T. brucei = assay type: cell-based
[9] = Trypanosoma brucei, 72 h, bloodstream form, 3 days, Table 1, activity of some compounds previously reported (Hall et al., 2012), read-out: T. brucei EC50
[10] = Trypanosoma cruzi, 336 h, epimastigotes, 14 days
[11] = Leishmania major, 144 h, promastigotes, 6 days
[12] = 72 h, differentiated THP‐1 cells, 3 days
[13] = Trypanosoma brucei, 72 h, read-out: T. brucei EC50
[14] = Selectivity Index: fold difference in EC50 of THP‐1 line relative to parasite
[15] = Trypanosoma brucei, Table 2, parasites expressing wild type levels, read-out: EC50 Control
[16] = Trypanosoma brucei, Table 4, wild type T. brucei, read-out: EC50 Control
[17] = Trypanosoma brucei, read-out: EC50 Control
[18] = Trypanosoma brucei, Table 3, BSF T. brucei wild type, read-out: EC50 Wild type

Compound: COC1=C(N2CC2)C(=O)C(OC)=C(N2CC2)C1=O [ABQ6]
- EC50 [1, 9]: 283 ± 41 nM
- T. cruzi SI (T. cruzi epimastigotes): 5
- EC50 (T. cruzi epimastigotes; [10]): 205 ± 53 nM
- EC50 (L. major promastigotes; [11]): 664 ± 2 nM
- EC50 [2, 12]: 1070 ± 159 nM

Compound: CCCOC1=C(N2CC2)C(=O)C(OCCC)=C(N2CC2)C1=O [ABQ8]
- T. brucei SI [1]: 4
- EC50 [1, 13]: 670 ± 30 nM
- T. cruzi SI (T. cruzi epimastigotes): 2
- EC50 (T. cruzi epimastigotes; Trypanosoma cruzi, 336 h): 1300 ± 108 nM
- L. major SI (L. major promastigotes): 2
- EC50 (L. major promastigotes; Leishmania major, 144 h): 1870 ± 184 nM
- EC50 ([2]; THP-1, 72 h): 2950 ± 770 nM

Compound: C[C@@H]1CN1C1=CC(=O)C(N2C[C@H]2C)=CC1=O [ABQ23]
- T. brucei SI [1, 14]: <1
- EC50 [1, 9]: 2300 ± 60 nM
- EC50 [1, 15]: 2940 ± 420 nM
- EC50 [1, 16]: 2300 ± 60 nM
- T. cruzi SI (T. cruzi epimastigotes): <1
- EC50 (T. cruzi epimastigotes; [10]): 2180 ± 670 nM
- EC50 (L. major promastigotes; [11]): 348 ± 166 nM
- EC50 [2, 12]: < 400 nM
- Fold difference in EC50 Tbntr++ relative to control [3]: 3315 ± 540 (1.13)
- EC50 [3]: 3320 nM
- Fold difference in EC50 Tbcpr2++ relative to control [4]: 3556 ± 96 (1.21)
- EC50 [4]: 3560 nM
- Ratio of EC50 values ΔTbsnm1 / control [5]: 1.01
- Susceptibility of Tbsnm1 null mutants relative to wild type / control (fold more susceptible) [5]: no significant difference
- EC50 [5]: 2410 ± 160 nM

Compound: C[C@H]1CN1C1=CC(=O)C(N2C[C@@H]2C)=CC1=O [ABQ24]
- T. brucei SI [1, 14]: <1
- EC50 [1, 9]: 1470 ± 120 nM
- EC50 [1, 15]: 1470 ± 120 nM
- EC50 [1, 16]: 1470 ± 120 nM
- T. cruzi SI (T. cruzi epimastigotes): <11
- EC50 (T. cruzi epimastigotes; [10]): 37 ± 1 nM
- L. major SI (L. major promastigotes): <1
- EC50 (L. major promastigotes; [11]): 473 ± 123 nM
- EC50 [2, 12]: < 400 nM
- Fold difference in EC50 Tbntr++ relative to control [3]: 2090 ± 160 (1.42)
- EC50 [3]: 2090 nM
- Fold difference in EC50 Tbcpr2++ relative to control [4]: 1698 ± 23 (1.16)
- EC50 [4]: 1700 nM
- Ratio of EC50 values ΔTbsnm1 / control [5]: 0.77
- Susceptibility of Tbsnm1 null mutants relative to wild type / control (fold more susceptible) [5]: no significant difference
- EC50 [5]: 1130 ± 100 nM

Compound: CC1(C)CN1C1=C(F)C(=O)C(N2CC2(C)C)=C(F)C1=O [ABQ30]
- T. brucei SI [1]: <1
- EC50 [1, 13]: 7400 ± 190 nM
- EC50 [1, 17]: 7400 ± 190 nM
- T. cruzi SI (T. cruzi epimastigotes): 4
- EC50 (T. cruzi epimastigotes; Trypanosoma cruzi, 336 h): 980 ± 25 nM
- L. major SI (L. major promastigotes): 22
- EC50 (L. major promastigotes; Leishmania major, 144 h): 174 ± 10 nM
- EC50 ([2]; THP-1, 72 h): 3750 ± 320 nM
- Fold difference in EC50 Tbntr++ relative to control [3]: 8670 ± 1670 (1.12)
- EC50 [3]: 8670 nM

Compound: NCCCC(N)(C(=O)O)C(F)F (stereo not drawn) [DFMO, difluoromethylornithine, reference compound]
- EC50 [1, 18]: 16800 ± 2690 nM
- EC50 [1, 17]: 27500 ± 108 nM
- Fold difference in EC50 Tbntr++ relative to control [3]: 30720 ± 1330 (1.12)
- EC50 [3]: 30700 nM
- Fold difference in EC50 Tbcpr2++ relative to control [4]: 33250 ± 5123 (1.21)
- EC50 [4]: 33200 nM
- ratio (fold difference in EC50 between RH1^RC1 and wild type) (RH1^RC1 T. brucei): 1.3
- EC50 (RH1^RC1 T. brucei; Trypanosoma brucei): 22200 ± 383 nM
- Ratio of EC50 values ΔTbsnm1 / control [5]: 0.99
- Susceptibility of Tbsnm1 null mutants relative to wild type / control (fold more susceptible) [5]: no significant difference
- EC50 [5]: 27100 ± 850 nM

Compound: O=C1C=C(N2CC2)C(=O)C=C1N1CC1 [DZQ]
- T. brucei SI [1]: 1
- EC50 [1, 13]: 272 ± 1 nM
- T. cruzi SI (T. cruzi epimastigotes): 36
- EC50 (T. cruzi epimastigotes; Trypanosoma cruzi, 336 h): < 10 nM
- EC50 (T. cruzi epimastigotes): 5 ± 1 nM
- L. major EC50 (L. major promastigotes): high potency
- L. major SI (L. major promastigotes): 3
- EC50 (L. major promastigotes; Leishmania major, 144 h): 60 ± 1 nM
- EC50 ([2]; THP-1, 72 h): 181 ± 5 nM
- EC50 [6]: 255 nM
- Fold difference in EC50 Tbntr++ relative to control [3]: 90 ± 3 (0.28 )
- EC50 [3]: 90 nM
- Ratio of EC50 values ΔTbsnm1 / control [5]: 0.27
- EC50 [5]: 43 ± 2 nM

Compound: CC1=C(N2CC2)C(=O)C(C)=C(N2CC2)C1=O [MeDZQ]
- T. brucei SI [1]: 1
- EC50 [1, 13]: 698 ± 57 nM
- EC50 [1, 17]: 740 ± 18 nM
- T. cruzi SI (T. cruzi epimastigotes): 16
- EC50 (T. cruzi epimastigotes; Trypanosoma cruzi, 336 h): 55 ± 2 nM
- L. major SI (L. major promastigotes): 2
- EC50 (L. major promastigotes; Leishmania major, 144 h): 560 ± 139 nM
- EC50 ([2]; THP-1, 72 h): 885 ± 23 nM
- Fold difference in EC50 Tbntr++ relative to control [3]: 115 ± 3 (0.16 )
- EC50 [3]: 115 nM

Compound: CC1=C(N2CC2)C(=O)C(CO)=C(N2CC2)C1=O [RH1]
- T. brucei SI [1, 14]: <5
- EC50 [1, 15]: 19 ± 1 nM
- EC50 [1, 18]: 25 ± 6 nM
- EC50 [1, 16]: 19 ± 1 nM
- inhibition at 0.005 µM ([1]; Trypanosoma brucei, 5 nM): ~10%
- Growth of wild type T. brucei ([1]; medium containing RH1 (40 nM), after 24 hrs): no growth
- T. cruzi SI (T. cruzi epimastigotes): <33
- L. major SI (L. major promastigotes): <1
- EC50 (L. major promastigotes; [11]): < 100 nM
- L. major EC50 (L. major promastigotes; promastigotes, 6 days): high potency
- EC50 (L. major promastigotes; promastigotes, 6 days): 68 ± 1 nM
- EC50 [2, 12]: < 100 nM
- EC50 ([6]; non‐cancerous primary cells, up to 5 days): < 100 nM
- Fold difference in EC50 Tbntr++ relative to control [3]: 3 ± 1 (0.16 )
- Susceptibility of TbNTR over expressing T. brucei relative to controls / wild type (fold more susceptible) [3]: fivefold
- EC50 [3]: 3 nM
- Fold difference in EC50 Tbcpr2++ relative to control [4]: 20 ± 3 (1.05)
- EC50 [4]: 20 nM
- EC50 of Tbntr heterozygote line relative to wild type (fold greater) [7]: approximately 2.5 fold
- Doubling time of resistant clones (RH1^RC1 T. brucei): ~10.5 h
- Fold less sensitive, RH1^RC lines versus controls (RH1^RC1 T. brucei): ~4.5 fold
- Fold less sensitive, RH1^RC lines versus wild type (RH1^RC1 T. brucei): ~3.5 fold
- ratio (fold difference in EC50 between RH1^RC1 and wild type) (RH1^RC1 T. brucei): 3.3
- EC50 (RH1^RC1 T. brucei; Trypanosoma brucei): 86 ± 3 nM
- EC50 (RH1^RC1 T. brucei): 83 ± 2 nM
- EC50 (RH1^RC2 T. brucei; Trypanosoma brucei): 91 ± 11 nM
- EC50 (RH1^RC2 T. brucei): 92 ± 1 nM
- Ratio of EC50 values ΔTbsnm1 / control [5]: 0.26
- Susceptibility of Tbsnm1 null mutants relative to wild type / control (fold more susceptible) [5]: threefold
- EC50 [5]: 5 ± 1 nM
- Fold increase in susceptibility of ΔTbsnm1 Tbntr++ versus wild type [8]: 15 fold
- Cells in G1/S phase (1N1K) (Wild type T. brucei): 37%
- Cells in G2/M phase (1N2K) (Wild type T. brucei): 58%

Compound: O=C1C=C(N2CC2)C(=O)C(N2CC2)=C1N1CC1 [TZQ]
- T. brucei SI [1]: <1
- EC50 [1, 13]: 179 ± 1 nM
- EC50 [1, 17]: 225 ± 26 nM
- EC50 ([1]; read-out: EC50 Control): 253 ± 33 nM
- T. cruzi SI (T. cruzi epimastigotes): <33
- L. major SI (L. major promastigotes): <11
- EC50 ([2]; THP-1, 72 h): < 100 nM
- EC50 [6]: < 100 nM
- Fold difference in EC50 Tbntr++ relative to control [3]: 60 ± 9 (0.27 )
- EC50 [3]: 60 nM
- Fold difference in EC50 Tbcpr2++ relative to control [4]: 284 ± 13 (1.26)
- EC50 [4]: 284 nM
- Ratio of EC50 values ΔTbsnm1 / control [5]: 0.18
- Susceptibility of Tbsnm1 null mutants relative to wild type / control (fold more susceptible) [5]: 2.7 fold
- EC50 [5]: 46 ± 1 nM
- Fold increase in susceptibility of ΔTbsnm1 Tbntr++ versus wild type [8]: 15 fold

Compound: phleomycin [reference compound]
- Cells in G1/S phase (1N1K) (Wild type T. brucei): approximately 80%
